“Also recorded” adds a separate entry of the source. Read-outs that look alike come from different tables or passages of the source.
Assays:
translation = format: cell-based, Saccharomyces cerevisiae; details: JD88 cells, indicated drug concentrations, 30° C. 5 hrs
[1] = tested on: L-A, M1 and L-BC dsRNA viruses; format: cell-based, Saccharomyces cerevisiae; details: 72 hrs at 3.8 μM anisomycin; not confirmed by northern blot
Excerpt: FIG. 12. (A) A single non-killer (K^−) colony from each drug concentration in the 72 hr data set was picked at random and total nucleic acids (TNA) were extracted [Dinman and Wickner, Virology 66:3669 (1992)]. Approximately equal amounts of TNA were separated through a 1% non-denaturing TAE-agarose gel and stained with ethidium bromide. The 4.6 kb L-A and L-BC, and the 1.8 kb M1 dsRNA bands are indicated. (B) RNA was denatured in the gel shown in (A), transferred to nitrocellulose and hybridized with [^32P]CTP labeled L-A and M1 (+) strand RNA probes as described in [Dinman and Wickner, Genetics 136:75 (1994)].
To determine whether loss of the M1 satellite virus was responsible for loss of the killer phenotype, a non-killer (K^−) colony from each drug concentration in the 72 hr data set was picked at random and total nucleic acids (TNA) were extracted [Park et al., Virology 216:451 (1996)]. Approximately equal amourits of TNA were separated through a 1% non-denaturing TAE-agarose gel and stained with ethidium bromide (FIG. 12A). As expected, the 1.8 kb M1 dsRNA band is not present in the K^− (drug treated) samples. Further, L-A appears to have also been cured by these drugs. […]
Recently the cDNA sequence of L-BC (also known as La), a ubiquitous minor dsRNA virus of yeast has been determined [Park et al., supra]. […]

HIV = format: cell-based, human
human host cells = format: cell-based
Experimental: Antiviral activities of these antibiotics were also tested against HIV.

[2] = tested on: killer phenotype (M1 satellite virus); details: 3.8 μM anisomycin, after 48 or 72 hours, JD88 cells
Experimental: JD88 cells were cultured in rich medium containing the indicated concentrations of either anisomycin (A) or sparsomycin (B). After 24, 48, 72, 96, or 120 hrs., aliquots of cells were removed, washed twice with sterile water, streaked onto rich medium, and grown to single colonies at 30° C. These were then replica plated onto indicator plates, and scored for their killer phenotypes. Loss of the killer phenotype was measured by dividing the number of non-killer (K^−) colonies by the total number of colonies. Each data set corresponds to >100 total colonies.
After 24, 48, 72, 96, or 120 hrs., aliquots of cells were streaked for single colonies onto rich medium, which were then replica plated onto indicator to score their killer phenotypes.

nonsense mutations = details: 5 ug/ml, UPF1+ and UPF1− strains
Experimental: Effects of drugs at a concentration of 5 μg/ml on nonsense supression in UPF+ and UPF− strains.
UPF1+ and UPF1− strains were treated with 5 ug/ml sparsomycin, anisomycin, and paromomycin, and tested for nonsense suppression.

tcm1/mak8 mutants = details: cited from earlier work
[3] = tested on: Saccharomyces cerevisiae strains (wildtype, mof4-1); format: cell-based; details: 30° C. 4 days
Upf2p = target: T1, Upf2p (Saccharomyces cerevisiae, UniProt P38798 1-1089, limits assumed); assay: two-hybrid system
T1 construct: Tested in a two-hybrid system; also called product of the UPF2/IFS1 gene
T1 sequence (looked up): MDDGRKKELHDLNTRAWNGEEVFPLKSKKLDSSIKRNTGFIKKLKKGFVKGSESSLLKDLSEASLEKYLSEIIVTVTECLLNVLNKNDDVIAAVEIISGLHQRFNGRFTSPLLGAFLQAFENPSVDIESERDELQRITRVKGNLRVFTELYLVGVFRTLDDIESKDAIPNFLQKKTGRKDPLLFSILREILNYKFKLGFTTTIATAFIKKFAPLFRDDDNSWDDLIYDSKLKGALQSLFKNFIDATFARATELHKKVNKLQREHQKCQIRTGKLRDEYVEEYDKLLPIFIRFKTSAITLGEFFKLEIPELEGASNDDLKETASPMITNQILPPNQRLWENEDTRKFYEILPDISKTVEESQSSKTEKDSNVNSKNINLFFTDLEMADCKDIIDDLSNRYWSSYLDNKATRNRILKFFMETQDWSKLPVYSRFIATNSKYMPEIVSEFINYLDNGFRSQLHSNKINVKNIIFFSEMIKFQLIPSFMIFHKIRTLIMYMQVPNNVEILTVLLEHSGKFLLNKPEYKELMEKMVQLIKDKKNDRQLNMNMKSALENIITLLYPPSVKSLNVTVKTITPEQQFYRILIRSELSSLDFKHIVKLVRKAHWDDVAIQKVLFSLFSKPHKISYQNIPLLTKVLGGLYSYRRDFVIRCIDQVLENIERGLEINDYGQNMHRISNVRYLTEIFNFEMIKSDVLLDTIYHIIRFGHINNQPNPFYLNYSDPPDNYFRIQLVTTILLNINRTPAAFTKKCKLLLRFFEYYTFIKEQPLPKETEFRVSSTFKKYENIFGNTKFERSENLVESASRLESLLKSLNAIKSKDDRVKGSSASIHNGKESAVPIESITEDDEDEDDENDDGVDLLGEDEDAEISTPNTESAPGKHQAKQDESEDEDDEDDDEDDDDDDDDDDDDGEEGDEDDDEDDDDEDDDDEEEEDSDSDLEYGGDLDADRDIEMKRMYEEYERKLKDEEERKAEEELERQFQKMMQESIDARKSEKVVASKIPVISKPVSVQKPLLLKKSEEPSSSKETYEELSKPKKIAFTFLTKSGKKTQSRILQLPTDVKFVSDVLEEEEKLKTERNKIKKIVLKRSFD

COc1ccc(C[C@H]2NC[C@H](O)[C@H]2OC(C)=O)cc1 [anisomycin]
overall translation (β-gal activities from pTI25) as percentage of the no drug controls (translation): ≥ 80%
L-BC dsRNA band [1]: appears to missing
titers of HIV (HIV): decrease titers of HIV
HIV viral titers as % of the no drug controls (HIV; anisomycin at concentrations 1500-fold lower than MIC, 4 days): approximately 30%
antiviral concentration relative to the MIC (fold lower) (HIV; concentration giving approximately 30% HIV titer): 1500
minimum inhibitory concentration (MIC) (human host cells): about 1.5 ug/ml
loss of the killer phenotype (non-killer colonies / total colony forming units) [2]: approximately 53%
nonsense suppression (nonsense mutations): able to suppress nonsense mutations
effectiveness in tcm1/mak8 mutants (tcm1/mak8 mutants): resistant; also recorded: ineffective

NC[C@@H]1O[C@H](O[C@H]2[C@@H](O)[C@H](O[C@@H]3[C@@H](O)[C@H](N)C[C@H](N)[C@H]3O[C@H]3O[C@H](CO)[C@@H](O)[C@H](O)[C@H]3N)O[C@@H]2CO)[C@H](N)[C@@H](O)[C@@H]1O [paromomycin]
PAROMOMYCIN SENSITIVITY (diameter of the zone of growth inhibition) ([3]; strain Wildtype (MOF+UPF+), disc 1.0 mg paromomycin, media lacking leucine): 0.7 cm
PAROMOMYCIN SENSITIVITY (diameter of the zone of growth inhibition) ([3]; strain mof4-1 (UPF1::URA3) + pmof4XAB, disc 1.0 mg, media lacking uracil and leucine): 1.6 cm
PAROMOMYCIN SENSITIVITY (diameter of the zone of growth inhibition) ([3]; strain mof4-1 (UPF1::URA3) + pmof4XAE, disc 1.0 mg, media lacking uracil and leucine): 2.3 cm
PAROMOMYCIN SENSITIVITY (diameter of the zone of growth inhibition) ([3]; strain mof4-1 (UPF1::URA3) + vector, disc 1.0 mg, media lacking uracil and leucine): 1.7 cm
PAROMOMYCIN SENSITIVITY (diameter of the zone of growth inhibition) ([3]; strain mof4-1 + pYCpUPF1, disc 1.0 mg, media lacking uracil and leucine): 1.6 cm
PAROMOMYCIN SENSITIVITY (diameter of the zone of growth inhibition) ([3]; strain mof4-1 + vector, disc 1.0 mg, media lacking uracil and leucine): 2.4 cm
PAROMOMYCIN SENSITIVITY (diameter of the zone of growth inhibition) ([3]; strain mof4-1, disc 1.0 mg paromomycin, media lacking leucine): 2.0 cm
nonsense suppression (nonsense mutations): able to suppress nonsense mutations

B1: Upf3p (other, Saccharomyces cerevisiae, UniProt P48412 1-387, looked up)
chain: MSNVAGELKNSEGKKKGRGNRYHNKNRGKSKNETVDPKKNENKVNNATNATHNNSKGRRNNKKRNREYYNYKRKARLGKSTENEGFKLVIRLLPPNLTADEFFAILRDNNNDDGDKQDIQGKLKYSDWCFFEGHYSSKVFKNSTYSRCNFLFDNLSDLEKCANFIKTCKFIDNKDNITIPDMKLSPYVKKFTQTSKKDAALVGTIEEDEIFKTFMNSMKQLNENDEYSFQDFSVLKSLEKEFSKSIELENKIAERTERVLTELVGTGDKVKNKNKKKKNKNAKKKFKEEEASAKIPKKKRNRGKKKRENREKSTISKTKNSNVVIIEEAGKEVLKQRKKKMLLQEKLKISNSSQPQSSSAQTQPSFQPKENLFVPRVKILHRDDTKK
notes: Tested in a two-hybrid system; also called product of the UPF3 gene
binding result (Upf2p): binds

B2: Upf1p (other, Saccharomyces cerevisiae, UniProt P30771 1-971, looked up)
chain: MVGSGSHTPYDISNSPSDVNVQPATQLNSTLVEDDDVDNQLFEEAQVTETGFRSPSASDNSCAYCGIDSAKCVIKCNSCKKWFCNTKNGTSSSHIVNHLVLSHHNVVSLHPDSDLGDTVLECYNCGRKNVFLLGFVSAKSEAVVVLLCRIPCAQTKNANWDTDQWQPLIEDRQLLSWVAEQPTEEEKLKARLITPSQISKLEAKWRSNKDATINDIDAPEEQEAIPPLLLRYQDAYEYQRSYGPLIKLEADYDKQLKESQALEHISVSWSLALNNRHLASFTLSTFESNELKVAIGDEMILWYSGMQHPDWEGRGYIVRLPNSFQDTFTLELKPSKTPPPTHLTTGFTAEFIWKGTSYDRMQDALKKFAIDKKSISGYLYYKILGHQVVDISFDVPLPKEFSIPNFAQLNSSQSNAVSHVLQRPLSLIQGPPGTGKTVTSATIVYHLSKIHKDRILVCAPSNVAVDHLAAKLRDLGLKVVRLTAKSREDVESSVSNLALHNLVGRGAKGELKNLLKLKDEVGELSASDTKRFVKLVRKTEAEILNKADVVCCTCVGAGDKRLDTKFRTVLIDESTQASEPECLIPIVKGAKQVILVGDHQQLGPVILERKAADAGLKQSLFERLISLGHVPIRLEVQYRMNPYLSEFPSNMFYEGSLQNGVTIEQRTVPNSKFPWPIRGIPMMFWANYGREEISANGTSFLNRIEAMNCERIITKLFRDGVKPEQIGVITPYEGQRAYILQYMQMNGSLDKDLYIKVEVASVDAFQGREKDYIILSCVRANEQQAIGFLRDPRRLNVGLTRAKYGLVILGNPRSLARNTLWNHLLIHFREKGCLVEGTLDNLQLCTVQLVRPQPRKTERPMNAQFNVESEMGDFPKFQDFDAQSMVSFSGQIGDFGNAFVDNTELSSYINNEYWNFENFKSAFSQKQNRNEIDDRNLYQEEASHLNSNFARELQREEQKHELSKDFSNLGI
notes: Tested in a two-hybrid system; also called Upf1 protein; product of the UPF1/IFS2/MOF4 gene
binding result (Upf2p): binds
